Several values for one entry are separate records, joined by “and”; a condition that tells them apart may be missing. Equal values may be shown once.
Test system: 379773-124-R-J2-PDC spheroid viability
Experiment: Anticancer human tumor 379773-124-R-J2-PDC patient-derived endometrial carcinoma cell line growth inhibition [POLQ]
Conditions: spheroids with HUVEC and MSC; for viability, T/C: stronger effect = lower value
Procedure: Multicellular complex tumor spheroid response to Polymerase (POL) inhibitors (novobiocin, ART-558, RP6685) in combination with a variety of drugs and investigational agents in selected tumor cell lines
The POL inhibitors (novobiocin, ART-558, and RP6685) were evaluated both individually and in combination with standard of care and investigational anticancer small molecules within a complex spheroid model of solid tumors. . Complex spheroids include a stromal component modeled by human endothelial cells (HUVEC) and fibroblasts modeled by human mesenchymal stem cells (MSCs). The concentration ranges selected for each drug and investigational agent were based upon clinically achievable concentrations if the clinical Cmax of the agent was known.
Compounds. The drugs and investigational agents: novobiocin (NSC847541), ART-558 (NSC835418), RP-6685 (NSC848927), peposertib (NSC802822), ceralasertib (NSC780249), elimusertib (NSC800525), camonsertib (NSC841442), AZD-1390 (NSC803789), olaparib (NSC753686), talazoparib (NSC767125), rucaparib (NSC756644), sotorasib (NSC818433), MRTX-1133 (NSC836407), SN-38 (NSC673596), topotecan (NSC609699), epotoside (NSC141540), doxorubicin (NSC123127), gemcitabine (NSC613327), 5-fluorouracil (NSC19893), paclitaxel (NSC125973), vemurafenib (NSC761431), MSA-2 (NSC828583), SN-011 (NSC837082), adavosertib (NSC754352), prexasertib (NSC758257), carboplatin (NSC241240) and oxaliplatin (NSC266046), were obtained from the National Cancer Institute (NCI) Developmental Therapeutics Program Chemical Repository (21). The FDA-approved anticancer drug set is available from the Developmental Therapeutics Program at https://dtp.cancer.gov/organization/dscb/obtaining/. […] The stock solutions were prepared in dimethyl sulfoxide (DMSO, Sigma-Aldrich, St. Louis, MO, cat. D2650), except for the platinum compounds which were prepared in saline (Quality Biological, Gaithersburg, MD, cat. 114-055-101), at 800-fold the tested concentration and stored at -70 degrees C prior to their use. All drugs and investigational agents were tested over a range starting from a high concentration at or near the clinical Cmax and decreasing in half-log increments. If the clinical Cmax for an agent had not been determined, the highest concentration tested was 10 microM, except for SN-38, which was tested at a high concentration of 1 microM.
Cell Culture. All cells were maintained in an incubator at 37 degrees C and 5% CO2 with 95% humidity. The PDC lines were cultured according to standard operating procedures established by the NCI PDMR (https://pdmr.cancer.gov). Table 3 of the manuscript, lists the cell lines along with the number of the three cell types plated to form the mct-spheroids and media for tumor cell growth. After thawing, all PDC lines, except 997537-175-T-J1-PDC and 415267-285-R-J2-PDC, were cultured in Matrigel-coated flasks prepared with a working solution of 1X Ham's F-12 nutrient mix, without supplementation (Thermo Fisher Scientific, cat. 11765054), 100 U/mL penicillin-streptomycin (Thermo Fisher Scientific, cat. 15140122), and 2.5% Matrigel (Corning Inc., Corning, NY, cat. 354248) for the first three passages. The two PDC lines 997537-175-T-J1-PDC and 415267-285-R-J2-PDC were cultured on uncoated flasks. The 857933-349-R-J2-PDC line was cultured in 6C/Colon 1B media containing advanced DMEM/F-12 (Thermo Fisher Scientific, cat. 12634028), 10 mM HEPES (Thermo Fisher Scientific, cat. 15630080), 1X GlutaMAX supplement (Thermo Fisher Scientific, cat. 35050061), 0.1 mg/mL primocin (InvivoGen, San Diego, CA, cat. ant-pm-2), 10% defined fetal bovine serum, heat inactivated (HyClone Laboratories Inc., Logan, UT, cat. SH30070.03HI), 50% L-WRN conditioned media (ATCC, cat. CRL-3276), 1.25 mM N-Acetyl-L-cysteine (Sigma-Aldrich, cat. A9165), 10 mM nicotinamide (Sigma-Aldrich, cat. N0636), 1X B-27 supplement (Thermo Fisher Scientific, cat. 17504044), 1X N-2 supplement (Thermo Fisher Scientific, cat. […]
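Also: spheroids exposed to drugs for seven days before readout.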
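For viability, T/C in this document: percent viability relative to DMSO vehicle control taken as 100%.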

`C=CCn1c(=O)c2cnc(Nc3ccc(N4CCN(C)CC4)cc3)nc2n1-c1cccc(C(C)(C)O)n1` was tested, and the viability, T/C (compound 0.00316 µM) was 95.2% and 88.4% and 90.7%, the viability, T/C (compound 0.01 µM) was 83.8% and 82.6% and 88.3% and the viability, T/C (compound 0.0316 µM) was 86.5% and 84.1% and 94.8%. For the same molecule, the viability, T/C (compound 0.1 µM) was 91.2% and 98.4% and 89.9%, the viability, T/C (compound 0.316 µM) was 67.7% and 74.7% and 79.6% and the viability, T/C (compound 1 µM) was 2.93% and 2.98% and 6.11%. The IC50 (curve of compound) was 0.434 µM and 0.47 µM and 0.503 µM.
`CC(=O)O[C@H]1C(=O)[C@@]2(C)[C@H]([C@H](OC(=O)c3ccccc3)[C@]3(O)C[C@H](OC(=O)[C@H](O)[C@@H](NC(=O)c4ccccc4)c4ccccc4)C(C)=C1C3(C)C)[C@]1(OC(C)=O)CO[C@@H]1C[C@@H]2O` was tested, and the viability, T/C (compound 0.00949 µM) was 21.2% and 20.1% and 16.9%, the viability, T/C (compound 0.03 µM) was 7.51% and 10.1% and 8.5% and the viability, T/C (compound 0.0949 µM) was 14.2% and 12.2% and 9.35%. For the same molecule, the viability, T/C (compound 0.3 µM) was 10.6% and 11.8% and 8.52%, the viability, T/C (compound 0.949 µM) was 9.35% and 10.1% and 7.28% and the viability, T/C (compound 3 µM) was 7.9% and 9.86% and 6.94%. The IC50 (curve of compound) was less than 0.00949 µM.
For `CCCS(=O)(=O)Nc1ccc(F)c(C(=O)c2c[nH]c3ncc(-c4ccc(Cl)cc4)cc23)c1F`, the viability, T/C (compound 0.0316 µM) was 95.9% and 86.2% and 78.9%, the viability, T/C (compound 0.1 µM) was 93.8% and 93.3% and 98.6% and the viability, T/C (compound 0.316 µM) was 87.6% and 96.1% and 91.3%. The viability, T/C (compound 1 µM) was 87% and 91% and 69%, the viability, T/C (compound 3.16 µM) was 84.2% and 84% and 74.1% and the viability, T/C (compound 10 µM) was 57.6% and 51.9% and 57.4%. It also gave an IC50 (curve of compound) greater than 10 µM.
For `CC[C@@]1(O)C(=O)OCc2c1cc1n(c2=O)Cc2cc3c(CN(C)C)c(O)ccc3nc2-1`, the viability, T/C (compound 0.000316 µM) was 86.7% and 95.5% and 87.2%, the viability, T/C (compound 0.001 µM) was 82.9% and 87.3% and 91.6% and the viability, T/C (compound 0.00316 µM) was 97.8% and 92.2% and 75.9%. For the same molecule, the viability, T/C (compound 0.01 µM) was 78.5% and 86.5% and 81.9%, the viability, T/C (compound 0.0316 µM) was 45.8% and 43% and 45.2% and the viability, T/C (compound 0.1 µM) was 14.7% and 26.1% and 10.6%. For the same molecule, the IC50 (curve of compound) was 0.0272 µM and 0.0263 µM and 0.0271 µM.
For `CCc1c2c(nc3ccc(O)cc13)-c1cc3c(c(=O)n1C2)COC(=O)[C@]3(O)CC`, the viability, T/C (compound 0.00316 µM) was 45.6% and 49.3% and 46.8%, the viability, T/C (compound 0.01 µM) was 11.9% and 17.2% and 7.71% and the viability, T/C (compound 0.0316 µM) was 6.11% and 11.4% and 5.39%. For the same molecule, the viability, T/C (compound 0.1 µM) was 2.46% and 4.85% and 2.38%, the viability, T/C (compound 0.316 µM) was 1.23% and 4.28% and 1.04% and the viability, T/C (compound 1 µM) was 1.89% and 0.95% and 0.4%. It also gave an IC50 (curve of compound) of less than 0.00316 µM.
In the case of `CNCc1ccc(-c2[nH]c3cc(F)cc4c3c2CCNC4=O)cc1`, the viability, T/C (compound 0.0316 µM) is reported as 79.5% and 90.1% and 98.3%, the viability, T/C (compound 0.1 µM) is reported as 85.4% and 95.9% and 92.6% and the viability, T/C (compound 0.316 µM) is reported as 76.9% and 93.3% and 85.4%. The viability, T/C (compound 1 µM) was 77.7% and 96% and 82.6%, the viability, T/C (compound 3.16 µM) was 71.9% and 100% and 80.1% and the viability, T/C (compound 10 µM) was 56.2% and 82.1% and 66.5%. For the same molecule, the IC50 (curve of compound) was greater than 10 µM.
With `COC1C(OC(N)=O)C(O)C(Oc2ccc3c(O)c(NC(=O)c4ccc(O)c(CC=C(C)C)c4)c(=O)oc3c2C)OC1(C)C` (centres undefined) the viability, T/C (compound 0.0316 µM) was 83.6% [middle of 13 runs], the viability, T/C (compound 0.316 µM) was 88.3% [middle of 13 runs] and the viability, T/C (compound 3.16 µM) was 89.8% [middle of 13 runs]. For the same molecule, the viability, T/C (compound 10 µM) was 81.1% [middle of 13 runs] and the IC50 (compound alone, run of 10/31/2023) was greater than 10 µM.
For `COc1cc(C2c3cc4c(cc3C(OC3OC5COC(C)OC5C(O)C3O)C3COC(=O)C23)OCO4)cc(OC)c1O` (centres undefined), the viability, T/C (compound 0.0316 µM) was 84.9% and 99% and 87%, the viability, T/C (compound 0.1 µM) was 86.8% and 96.4% and 75.6% and the viability, T/C (compound 0.316 µM) was 89.5% and 90% and 75.2%. The viability, T/C (compound 1 µM) was 64.8% and 72.1% and 65%, the viability, T/C (compound 3.16 µM) was 14.7% and 19.1% and 14.3% and the viability, T/C (compound 10 µM) was 10.1% (2×) and 14.7%. The IC50 (curve of compound) was 1.4 µM and 1.62 µM.
